According to ChEMBL document CHEMBL5360594, “Astellolides R-W, Drimane-Type Sesquiterpenoids from an Aspergillus parasiticus Strain Associated with an Isopod” (J Nat Prod, 2023):
pIC50: −log10 of the molar value. Blank lines part the entries; values can stand above or below the compound they belong to.

How the values were obtained:
RAW264.7 [1] = assay: Antiinflammatory activity in mouse RAW264.7 cells assessed as inhibition of LPS-induced NO production preincubated with compound for 30 mins followed by LPS-stimulation and measured after 24 hrs by Griess assay; assay type: functional, cell-based
K562 = assay: Cytotoxicity against human K562 cells assessed as inhibition of cell growth at 20 uM incubated for 48 hrs by MTT assay; assay type: toxicity, cell-based; details: k562, 48 h
A549 = assay: Cytotoxicity against human A549 cells assessed as inhibition of cell growth at 20 uM incubated for 48 hrs by MTT assay; assay type: toxicity, cell-based; details: a549, 48 h
5637 = assay: Cytotoxicity against human 5637 cells assessed as inhibition of cell growth at 20 uM incubated for 48 hrs by MTT assay; assay type: toxicity, cell-based; details: human, 5637, 48 h
HeLa = assay: Cytotoxicity against human HeLa cells assessed as inhibition of cell growth at 20 uM incubated for 48 hrs by MTT assay; assay type: toxicity, cell-based
RAW264.7 [2] = assay: Cytotoxicity against mouse RAW264.7 cells assessed as inhibition of cell growth at 30 uM; assay type: toxicity, cell-based; details: raw264.7, 30 µM
HCT-116 = assay: Cytotoxicity against human HCT-116 cells assessed as inhibition of cell growth at 20 uM incubated for 48 hrs by MTT assay; assay type: toxicity, cell-based; details: hct-116, 48 h
HepG2 = assay: Cytotoxicity against human HepG2 cells assessed as inhibition of cell growth at 20 uM incubated for 48 hrs by MTT assay; assay type: toxicity, cell-based; details: hepg2, 48 h
MKN-45 = assay: Cytotoxicity against human MKN-45 cells assessed as inhibition of cell growth at 20 uM incubated for 48 hrs by MTT assay; assay type: toxicity, cell-based; details: mkn-45, 48 h
CAL-62 = assay: Cytotoxicity against human CAL-62 cells assessed as inhibition of cell growth at 20 uM incubated for 48 hrs by MTT assay; assay type: toxicity, cell-based; details: cal-62, 48 h
MCF7 = assay: Cytotoxicity against human MCF7 cells assessed as inhibition of cell growth at 20 uM incubated for 48 hrs by MTT assay; assay type: toxicity, cell-based; details: mcf7, 48 h

pIC50 (RAW264.7 [1]): 5.59
Compound: C[C@@H]1C[C@H]2[C@@H]3CCC4=CC(=O)C=C[C@]4(C)[C@@]3(F)[C@@H](O)C[C@]2(C)[C@@]1(O)C(=O)CO [DEXAMETHASONE]

pIC50 (RAW264.7 [1]): 4.72
Compound: CC(=O)OC[C@@]1(C)CCC[C@]2(COC(C)=O)C3=C(C[C@@H](OC(=O)c4cccnc4)[C@@H]12)C(=O)OC3
Activity (K562): Non-Toxic
Activity (A549): Non-Toxic
Activity 5637: Non-Toxic
Activity (HeLa): Non-Toxic
Activity (RAW264.7 [2]): Non-Toxic
Activity (HCT-116): Non-Toxic
Activity (HepG2): Non-Toxic
Activity (MKN-45): Non-Toxic
Activity (CAL-62): Non-Toxic
Activity (MCF7): Non-Toxic

pIC50 (RAW264.7 [1]): 4.66
Compound: CC12CCCC34C5=C(CC(O[C@@H]3OC1)C24)C(=O)OC5
Activity (K562): Non-Toxic
Activity (A549): Non-Toxic
Activity 5637: Non-Toxic
Activity (HeLa): Non-Toxic
Activity (RAW264.7 [2]): Non-Toxic
Activity (HCT-116): Non-Toxic
Activity (HepG2): Non-Toxic
Activity (MKN-45): Non-Toxic
Activity (CAL-62): Non-Toxic
Activity (MCF7): Non-Toxic

pIC50 (RAW264.7 [1]): 5.17
Compound: CC(=O)OC[C@]12CCCC(C)(C)[C@@H]1[C@H](OC(=O)c1ccccc1)CC1=C2COC1=O
Activity (K562): Non-Toxic
Activity (A549): Non-Toxic
Activity 5637: Non-Toxic
Activity (HeLa): Non-Toxic
Activity (RAW264.7 [2]): Non-Toxic
Activity (HCT-116): Non-Toxic
Activity (HepG2): Non-Toxic
Activity (MKN-45): Non-Toxic
Activity (CAL-62): Non-Toxic
Activity (MCF7): Non-Toxic

pIC50 (RAW264.7 [1]): 5.21
Compound: C[C@]1(CO)CC[C@@H](O)[C@]2(C)C3=C(CC[C@@H]12)C(=O)OC3
Activity (K562): Non-Toxic
Activity (A549): Non-Toxic
Activity 5637: Non-Toxic
Activity (HeLa): Non-Toxic
Activity (RAW264.7 [2]): Non-Toxic
Activity (HCT-116): Non-Toxic
Activity (HepG2): Non-Toxic
Activity (MKN-45): Non-Toxic
Activity (CAL-62): Non-Toxic
Activity (MCF7): Non-Toxic

pIC50 (RAW264.7 [1]): 4.68
Compound: C[C@]1(CO)CCC[C@]2(CO)C3=C(CC[C@@H]12)C(=O)OC3
Activity (K562): Non-Toxic
Activity (A549): Non-Toxic
Activity 5637: Non-Toxic
Activity (HeLa): Non-Toxic
Activity (RAW264.7 [2]): Non-Toxic
Activity (HCT-116): Non-Toxic
Activity (HepG2): Non-Toxic
Activity (MKN-45): Non-Toxic
Activity (CAL-62): Non-Toxic
Activity (MCF7): Non-Toxic
